# Results: US20240190874A1, “SMALL MOLECULE DEGRADERS OF ANDROGEN RECEPTOR” (THE REGENTS OF THE UNIVERSITY OF MICHIGAN, priority 2021, published 2024)
# Read-outs that look alike come from different tables or passages of the source.
# Key:
# Assay type in all cases: cell-based
# AR = biological target: T1, AR (Homo sapiens, UniProt P10275); experiment: Degradation of AR in VCaP cells; conditions: VCaP cells; for Dmax: VCaP
# T1 construct: Degradation of AR; Cellular potency; host or cells: VCaP cells
# T1 sequence (P10275 1-920): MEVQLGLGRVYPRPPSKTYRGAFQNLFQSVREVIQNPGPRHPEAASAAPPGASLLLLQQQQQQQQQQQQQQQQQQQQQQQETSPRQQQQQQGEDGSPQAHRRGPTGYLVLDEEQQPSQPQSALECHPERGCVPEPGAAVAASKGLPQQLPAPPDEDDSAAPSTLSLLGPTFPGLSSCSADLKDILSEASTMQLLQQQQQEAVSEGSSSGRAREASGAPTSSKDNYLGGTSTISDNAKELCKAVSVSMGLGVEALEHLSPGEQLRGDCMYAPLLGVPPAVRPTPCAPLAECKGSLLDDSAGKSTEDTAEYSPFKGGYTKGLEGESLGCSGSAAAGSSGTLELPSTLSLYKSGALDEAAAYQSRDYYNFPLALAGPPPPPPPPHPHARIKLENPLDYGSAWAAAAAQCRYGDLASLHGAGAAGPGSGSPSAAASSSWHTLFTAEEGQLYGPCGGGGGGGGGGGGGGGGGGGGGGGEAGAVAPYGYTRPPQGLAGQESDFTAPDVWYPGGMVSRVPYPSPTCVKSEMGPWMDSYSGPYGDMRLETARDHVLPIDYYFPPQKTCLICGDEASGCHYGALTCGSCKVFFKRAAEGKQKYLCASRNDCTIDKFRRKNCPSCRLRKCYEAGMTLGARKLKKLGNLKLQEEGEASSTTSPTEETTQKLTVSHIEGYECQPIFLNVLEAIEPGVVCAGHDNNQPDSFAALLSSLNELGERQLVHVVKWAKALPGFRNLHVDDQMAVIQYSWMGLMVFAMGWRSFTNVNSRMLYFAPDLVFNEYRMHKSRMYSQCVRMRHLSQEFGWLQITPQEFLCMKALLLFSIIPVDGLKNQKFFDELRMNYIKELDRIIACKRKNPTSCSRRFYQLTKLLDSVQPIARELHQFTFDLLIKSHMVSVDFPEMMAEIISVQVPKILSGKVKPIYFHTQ
# Protocol: (§1) Biological Assays. LNCaP and VCaP cells used were purchased from American Type Culture Collection (ATCC). LNCaP were grown in RPMI 1640 (Invitrogen) and VCaP cells were grown in DMEM with Glutamax (Invitrogen). All of the cells were supplemented with 10% fetal bovine serum (Invitrogen) at 37° C. in a humidified 5% CO2 incubator.
# LNCaP cells = experiment: Cellular potency (IC50) in LNCaP cells
# Protocol: as §1
# VCaP cells = experiment: Cellular potency (IC50) in VCaP cells
# Protocol: as §1
structure (smiles),measurement,setting,value
C[C@H]1CC2(CCN(c3ccc(CN4CCN(C5CCN(c6ccc7c(c6)C(=O)N(C6CCC(=O)NC6=O)C7=O)CC5)CC4)c(F)c3)CC2)CN1c1ccc(C#N)c(Cl)c1 (stereo partly drawn) [compound 10],DC50,AR,< 10 nM
same,Dmax,AR,> 90%
same,IC50,LNCaP cells,< 10 nM
same,IC50,VCaP cells,< 10 nM
C=C1CCC(N2C(=O)c3ccc(N4CC(C5CCN(Cc6ccc(N7CCC8(CC7)C[C@H](C)N(c7ccc(C#N)c(Cl)c7)C8)cc6)CC5)C4)cc3C2=O)C(=O)N1 (stereo partly drawn) [compound 16],Dmax,AR,> 90%
same,IC50,"LNCaP cells; Homo sapiens, LNCaP",< 10 nM
same,IC50,"VCaP cells; Homo sapiens, VCaP",< 10 nM
C=C1CCC(N2C(=O)c3ccc(N4CCC(C5CCN(Cc6ccc(N7CCC8(CC7)C[C@H](C)N(c7ccc(C#N)c(Cl)c7)C8)cc6)CC5)CC4)cc3C2=O)C(=O)N1 (stereo partly drawn) [compound 17],Dmax,AR,70 to 90%
same,IC50,"LNCaP cells; Homo sapiens, LNCaP",< 100 nM
same,IC50,"VCaP cells; Homo sapiens, VCaP",< 100 nM
C=C1CCC(N2C(=O)c3ccc(N4CCC(N5CCN(Cc6ccc(N7CCC8(CC7)C[C@H](C)N(c7ccc(C#N)c(Cl)c7)C8)cc6)CC5)CC4)cc3C2=O)C(=O)N1 (stereo partly drawn) [compound 18],Dmax,AR,> 90%
same,IC50,"LNCaP cells; Homo sapiens, LNCaP",< 10 nM
same,IC50,"VCaP cells; Homo sapiens, VCaP",< 10 nM
C[C@H]1CC2(CCN(c3ccc(CN4CCC(N5Cc6cc7c(cc6C5)C(=O)N(C5CCC(=O)NC5=O)C7=O)CC4)cc3)CC2)CN1c1ccc(C#N)c(Cl)c1 (stereo partly drawn) [compound 19],DC50,AR,< 100 nM
same,Dmax,AR,70 to 90%
same,IC50,"LNCaP cells; Homo sapiens, LNCaP",< 100 nM
same,IC50,"VCaP cells; Homo sapiens, VCaP",< 100 nM
C[C@H]1CC2(CCN(c3ccc(CN4CCC(CN5Cc6cc7c(cc6C5)C(=O)N(C5CCC(=O)NC5=O)C7=O)CC4)cc3)CC2)CN1c1ccc(C#N)c(Cl)c1 (stereo partly drawn) [compound 20],DC50,AR,< 100 nM
same,Dmax,AR,70 to 90%
same,IC50,"LNCaP cells; Homo sapiens, LNCaP",< 100 nM
same,IC50,"VCaP cells; Homo sapiens, VCaP",< 100 nM
C[C@H]1CC2(CCN(c3ccc(C4CCN(CC5CN(c6ccc7c(c6)C(=O)N(C6CCC(=O)NC6=O)C7=O)C5)CC4)cc3)CC2)CN1c1ccc(C#N)c(Cl)c1 (stereo partly drawn) [compound 21],DC50,AR,< 1 nM
same,Dmax,AR,> 90%
same,IC50,"LNCaP cells; Homo sapiens, LNCaP",< 10 nM
same,IC50,"VCaP cells; Homo sapiens, VCaP",< 10 nM
C[C@H]1CC2(CCN(c3ccc(C4CCN(C5CN(c6ccc7c(c6)C(=O)N(C6CCC(=O)NC6=O)C7=O)C5)CC4)cc3)CC2)CN1c1ccc(C#N)c(Cl)c1 (stereo partly drawn) [compound 22],DC50,AR,< 100 nM
same,Dmax,AR,70 to 90%
same,IC50,"LNCaP cells; Homo sapiens, LNCaP",< 100 nM
same,IC50,"VCaP cells; Homo sapiens, VCaP",< 100 nM
C=C1CCC(N2C(=O)c3ccc(N4CC(N5CCC(Cc6ccc(N7CCC8(CC7)C[C@H](C)N(c7ccc(C#N)c(Cl)c7)C8)cc6)CC5)C4)cc3C2=O)C(=O)N1 (stereo partly drawn) [compound 23],Dmax,AR,> 90%
same,IC50,"LNCaP cells; Homo sapiens, LNCaP",< 10 nM
same,IC50,"VCaP cells; Homo sapiens, VCaP",< 10 nM
C=C1CCC(N2C(=O)c3ccc(N4CCC(N5CCC(Cc6ccc(N7CCC8(CC7)C[C@H](C)N(c7ccc(C#N)c(Cl)c7)C8)cc6)CC5)CC4)cc3C2=O)C(=O)N1 (stereo partly drawn) [compound 24],Dmax,AR,> 90%
same,IC50,"LNCaP cells; Homo sapiens, LNCaP",< 10 nM
same,IC50,"VCaP cells; Homo sapiens, VCaP",< 10 nM
C[C@H]1CC2(CCN(c3ccc(CC4CCN(CC5CN(c6ccc7c(c6)C(=O)N(C6CCC(=O)NC6=O)C7=O)C5)CC4)cc3)CC2)CN1c1ccc(C#N)c(Cl)c1 (stereo partly drawn) [compound 25],DC50,AR,< 1 nM
same,Dmax,AR,> 90%
same,IC50,"LNCaP cells; Homo sapiens, LNCaP",< 10 nM
same,IC50,"VCaP cells; Homo sapiens, VCaP",< 10 nM
C[C@H]1CC2(CCN(c3ccc(CC4CCN(CC5CCN(c6ccc7c(c6)C(=O)N(C6CCC(=O)NC6=O)C7=O)CC5)CC4)cc3)CC2)CN1c1ccc(C#N)c(Cl)c1 (stereo partly drawn) [compound 26],DC50,AR,< 1 nM
same,Dmax,AR,> 90%
same,IC50,"LNCaP cells; Homo sapiens, LNCaP",< 10 nM
same,IC50,"VCaP cells; Homo sapiens, VCaP",< 10 nM
C[C@H]1CC2(CCN(c3ccc(N4CCN(C5CN(c6ccc7c(c6)C(=O)N(C6CCC(=O)NC6=O)C7=O)C5)CC4)cc3)CC2)CN1c1ccc(C#N)c(Cl)c1 (stereo partly drawn) [compound 27],DC50,AR,< 1 nM
same,Dmax,AR,> 90%
same,IC50,"LNCaP cells; Homo sapiens, LNCaP",< 10 nM
same,IC50,"VCaP cells; Homo sapiens, VCaP",< 10 nM
"C[C@H]1CC2(CCN(c3ccc(N4CCN(CC5CN(c6ccc7c(c6)C(=O)N(C6CCC(=O)NC6=O)C7=O)C5)CC4)cc3)CC2)CN1c1ccc(C#N)c(Cl)c1 (stereo partly drawn) [compound 28, 2-chloro-4-((3S)-8-(4-(4-((1-(2-(2,6-dioxopiperidin-3-yl)-1,3-dioxoisoindolin-5-yl)azetidin-3-yl)methyl)piperazin-1-yl)phenyl)-3-methyl-2,8-diazaspiro[4.5]decan-2-yl)benzonitrile]",Dmax,AR,> 90%
same,IC50,"LNCaP cells; Homo sapiens, LNCaP",< 10 nM
same,IC50,"VCaP cells; Homo sapiens, VCaP",< 10 nM
C[C@H]1CC2(CCN(c3ccc(N4CCN(C5CCN(c6ccc7c(c6)C(=O)N(C6CCC(=O)NC6=O)C7=O)CC5)CC4)cc3)CC2)CN1c1ccc(C#N)c(Cl)c1 (stereo partly drawn) [compound 29],DC50,AR,< 100 nM
same,Dmax,AR,> 90%
same,IC50,"LNCaP cells; Homo sapiens, LNCaP",< 100 nM
same,IC50,"VCaP cells; Homo sapiens, VCaP",< 100 nM
C[C@H]1CC2(CCN(c3ccc(N4CCN(CC5CCN(c6ccc7c(c6)C(=O)N(C6CCC(=O)NC6=O)C7=O)CC5)CC4)cc3)CC2)CN1c1ccc(C#N)c(Cl)c1 (stereo partly drawn) [compound 30],DC50,AR,< 1 nM
same,Dmax,AR,> 90%
same,IC50,"LNCaP cells; Homo sapiens, LNCaP",< 10 nM
same,IC50,"VCaP cells; Homo sapiens, VCaP",< 10 nM
C[C@H]1CC2(CCN(c3ccc(N4CCN(CC5CN(c6ccc7c(c6)C(=O)N(C6CCC(=O)NC6=O)C7=O)C5)CC4)cn3)CC2)CN1c1ccc(C#N)c(Cl)c1 (stereo partly drawn) [compound 31],DC50,AR,< 1 nM
same,Dmax,AR,> 90%
same,IC50,"LNCaP cells; Homo sapiens, LNCaP",< 10 nM
same,IC50,"VCaP cells; Homo sapiens, VCaP",< 10 nM
C[C@H]1CC2(CCN(c3ccc(N4CCN(CC5CCN(c6ccc7c(c6)C(=O)N(C6CCC(=O)NC6=O)C7=O)CC5)CC4)cn3)CC2)CN1c1ccc(C#N)c(Cl)c1 (stereo partly drawn) [compound 32],DC50,AR,< 1 nM
same,Dmax,AR,> 90%
same,IC50,"LNCaP cells; Homo sapiens, LNCaP",< 10 nM
same,IC50,"VCaP cells; Homo sapiens, VCaP",< 10 nM
C[C@H]1CC2(CCN(c3ccc(N4CCN(C5CN(c6ccc7c(c6)C(=O)N(C6CCC(=O)NC6=O)C7=O)C5)CC4)cn3)CC2)CN1c1ccc(C#N)c(Cl)c1 (stereo partly drawn) [compound 33],DC50,AR,< 10 nM
same,Dmax,AR,70 to 90%
same,IC50,"LNCaP cells; Homo sapiens, LNCaP",< 10 nM
same,IC50,"VCaP cells; Homo sapiens, VCaP",< 10 nM
C[C@H]1CC2(CCN(c3ccc(N4CCN(CC5CN(c6ccc7c(c6)C(=O)N(C6CCC(=O)NC6=O)C7=O)C5)CC4)nc3)CC2)CN1c1ccc(C#N)c(Cl)c1 (stereo partly drawn) [compound 34],DC50,AR,< 1 nM
same,Dmax,AR,> 90%
same,IC50,"LNCaP cells; Homo sapiens, LNCaP",< 10 nM
same,IC50,"VCaP cells; Homo sapiens, VCaP",< 10 nM
C[C@H]1CC2(CCN(c3ccc(N4CCN(CC5CCN(c6ccc7c(c6)C(=O)N(C6CCC(=O)NC6=O)C7=O)CC5)CC4)nc3)CC2)CN1c1ccc(C#N)c(Cl)c1 (stereo partly drawn) [compound 35],DC50,AR,< 1 nM
same,Dmax,AR,> 90%
same,IC50,"LNCaP cells; Homo sapiens, LNCaP",< 10 nM
same,IC50,"VCaP cells; Homo sapiens, VCaP",< 10 nM
C[C@H]1CC2(CCN(c3ccc(N4CCN(C5CN(c6ccc7c(c6)C(=O)N(C6CCC(=O)NC6=O)C7=O)C5)CC4)nc3)CC2)CN1c1ccc(C#N)c(Cl)c1 (stereo partly drawn) [compound 36],DC50,AR,< 1 nM
same,Dmax,AR,> 90%
same,IC50,"LNCaP cells; Homo sapiens, LNCaP",< 10 nM
same,IC50,"VCaP cells; Homo sapiens, VCaP",< 10 nM
C[C@H]1CC2(CCN(c3ccc(N4CCN(CC5CN(c6ccc7c(c6)C(=O)N(C6CCC(=O)NC6=O)C7=O)C5)CC4)cc3F)CC2)CN1c1ccc(C#N)c(Cl)c1 (stereo partly drawn) [compound 37],DC50,AR,< 1 nM
same,Dmax,AR,> 90%
same,IC50,"LNCaP cells; Homo sapiens, LNCaP",< 10 nM
same,IC50,"VCaP cells; Homo sapiens, VCaP",< 10 nM
C=C1CCC(N2C(=O)c3ccc(N4CCC(CN5CCN(c6ccc(N7CCC8(CC7)C[C@H](C)N(c7ccc(C#N)c(Cl)c7)C8)c(F)c6)CC5)CC4)cc3C2=O)C(=O)N1 (stereo partly drawn) [compound 38],Dmax,AR,> 90%
same,IC50,"LNCaP cells; Homo sapiens, LNCaP",< 10 nM
same,IC50,"VCaP cells; Homo sapiens, VCaP",< 10 nM
C[C@H]1CC2(CCN(c3ccc(N4CCN(C5CN(c6ccc7c(c6)C(=O)N(C6CCC(=O)NC6=O)C7=O)C5)CC4)cc3F)CC2)CN1c1ccc(C#N)c(Cl)c1 (stereo partly drawn) [compound 39],DC50,AR,< 1 nM
same,Dmax,AR,> 90%
same,IC50,"LNCaP cells; Homo sapiens, LNCaP",< 10 nM
same,IC50,"VCaP cells; Homo sapiens, VCaP",< 10 nM
